In article PMC3517478 (BMC Neurology, 2012):
Where a chain is given by its changes, count along the chain named.

How the values were obtained:
[1] = target: T1, human α1R271K-GlyR expressed in HEK 293 cells (Homo sapiens, UniProt P23415, R299K); conditions: R271K
T1 sequence (P23415 29-457 R299K): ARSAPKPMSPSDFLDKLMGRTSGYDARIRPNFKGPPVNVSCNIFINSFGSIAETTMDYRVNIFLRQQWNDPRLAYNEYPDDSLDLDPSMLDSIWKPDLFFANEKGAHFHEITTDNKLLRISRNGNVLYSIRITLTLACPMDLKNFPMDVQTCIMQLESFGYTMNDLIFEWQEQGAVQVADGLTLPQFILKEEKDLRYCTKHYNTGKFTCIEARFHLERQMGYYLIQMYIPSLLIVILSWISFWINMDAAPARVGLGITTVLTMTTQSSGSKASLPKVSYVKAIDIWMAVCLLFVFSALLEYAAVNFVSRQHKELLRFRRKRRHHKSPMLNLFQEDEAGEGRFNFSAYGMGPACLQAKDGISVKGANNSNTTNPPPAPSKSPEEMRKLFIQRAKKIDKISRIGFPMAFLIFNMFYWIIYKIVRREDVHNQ
Excerpt: (§1) Human α1-, α1R271Q-, α1R271L-, α1R271K and α1S267I-GlyR subunits were transiently transfected into human embryonic kidney cells (HEK 293, ATCC, Manassas, USA). The wild type α1-GlyR -cDNA was cloned in pCIS2 (Invitrogen, San Diego, USA) vector and provided by Prof. Heinrich Betz (Max-Planck-Institut für Hirnforschung, Frankfurt am Main, Germany). For the plasmid cDNA of the mutated α1R271Q-, α1R271L-, α1R271K- and α1S267I-GlyR the eukaryotic expression vector pcDNA1amp (Invitrogen, San Diego, USA), under the control of cytomegalovirus promoter, was used. For site-directed mutagenesis, single stranded template cDNA was synthesized from M13 origin of replication and the mutations of arginine residue (R) at position 271 to glutamine (R271Q), leucine (R271L) or lysine (R271K) and mutation of serine residue (S) at position 267 to isoleucine (S267I) were generated using standard procedures. […] Wild type and mutated α1-GlyR subunits efficiently form homomeric receptors in heterologous expression systems.
(§2) HEK 293 cells were cultured in medium containing HAMS’F-12 (Biochrom, Berlin, Germany), supplemented with 10% fetal bovine serum (FBS, Biochrom, Berlin, Germany), 100 U ml^–1 penicillin and 100μgml^–1 streptomycin (Gibco BRL, Life Technologies, Karlsruhe, Germany) at 37°C in a 5% CO2/ 95% air incubator. For transfection cells were suspended in a buffer containing 50mM K2HPO4 (Fluka BioChemika, Seelze, Germany), 20mMK-acetate (Sigma-Aldrich, Taufkirchen, Germany) and 25mM MgSO4 (Sigma-Aldrich, Taufkirchen, Germany) at pH 7.35. To visualize transfected cells, they were co-transfected with cDNA encoding for enhanced green fluorescent protein (EGFP) contained in the pEGFP-N1 expression vector (Clontech, Palo Alto, USA). The corresponding cDNA (5μg for the GlyR and 2.5μg for EGFP) was added to 400μl of the cell suspension and the mixture was rapidly transferred into the electroporation cuvette. For transfection we used an electroporation device by EquiBio (Kent, UK) and a 4mm aluminum electrode electroporation cuvette (Peqlab, Erlangen, Germany).
(§3) The phenol derivative 4-chloropropofol ([…]) was provided as pure substance by Prof. Paul M. O’Neill (University of Liverpool, England), prepared as light-protected 1M stock solution in ethanol (EtOH, J.T.Baker, Griesheim, Germany) and stored in glass vessels at −20°C.
(§4) Drug-containing vials were vigorously vortexed for 30min. Patch electrodes were filled with an intracellular solution of [mM] KCl 140, MgCl2 2, EGTA 11, HEPES 10, glucose 11, CaCl2 1 with pH 7.3, adjusted with 1 M KOH and a bath solution contained [mM] NaCl 162, KCl 5.31, NaHPO4 0.85, KH2PO4 0.22, HEPES 15, glucose 6.11, pH 7.4 adjusted with 1 M NaOH. Osmolarity of both solutions was set at 280–300 mOsmol.
(§5) Whole-cell experiments were performed at a holding potential of −30 mV with a mean seal resistance of 1 GΩ. […] A fast liquid filament switch technique was used for the application of the agonist, presented in pulses of 2 s duration every 20 s. The liquid filament switch technique is able to exchange the solution passing an outside-out patch or small whole-cells within 1–2 ms. We calculated flow rate of background solution through the chamber with 3,4 ml/min corresponding to 4% of maximal pump rate. With regard to the chamber volume of 100 μl the exchange solution time within the chamber was assessed to approximately […], dependent on cell size accordingly. Piezo-switch and small diameter capillary (ID 0.15 mm) within the measurement chamber promoted the millisecond solution exchange. […] The induced current (I) by this saturating control solution was defined as Icontrol. […] The stability of the seal was controlled during the complete experiment via control of the seal resistance. A variation of 10-20% of the basic value was regarded as tolerable.

[2] = target: T2, human α1R271L-GlyR expressed in HEK 293 cells (Homo sapiens, UniProt P23415, R299L); conditions: R271L
T2 sequence (P23415 29-457 R299L): T1 sequence (P23415 29-457 R299K) with K271L
Excerpt: as §1, §2, §3, §4, §5

[3] = 10-90% of Imax, monoexponential fit

NCC(=O)O [glycine]
Current amplitude [% of mean WT current amplitude] ± SEM [1]: 32.0±18%
nH ± SEM (Hill coefficient), glycine activation [1]: 1.0±0.5
Rise time ± SEM [1, 3]: 14.9 ± 7.7 ms
Mean current amplitude ± SEM ([1]; saturating glycine 10 mM): 526±97 pA
Current amplitude [% of mean WT current amplitude] ± SEM [2]: 20.5±12%
nH ± SEM (Hill coefficient), glycine activation [2]: 1.8±0.7
Rise time ± SEM [2, 3]: 998 ± 129 ms
Mean current amplitude ± SEM ([2]; saturating glycine 300 mM): 336±51 pA
